The compounds below were run against Cannabinoid receptor 1 (Rattus norvegicus, UniProt P20272).
Cannabinoid receptor 1, sequence (P20272 whole entry): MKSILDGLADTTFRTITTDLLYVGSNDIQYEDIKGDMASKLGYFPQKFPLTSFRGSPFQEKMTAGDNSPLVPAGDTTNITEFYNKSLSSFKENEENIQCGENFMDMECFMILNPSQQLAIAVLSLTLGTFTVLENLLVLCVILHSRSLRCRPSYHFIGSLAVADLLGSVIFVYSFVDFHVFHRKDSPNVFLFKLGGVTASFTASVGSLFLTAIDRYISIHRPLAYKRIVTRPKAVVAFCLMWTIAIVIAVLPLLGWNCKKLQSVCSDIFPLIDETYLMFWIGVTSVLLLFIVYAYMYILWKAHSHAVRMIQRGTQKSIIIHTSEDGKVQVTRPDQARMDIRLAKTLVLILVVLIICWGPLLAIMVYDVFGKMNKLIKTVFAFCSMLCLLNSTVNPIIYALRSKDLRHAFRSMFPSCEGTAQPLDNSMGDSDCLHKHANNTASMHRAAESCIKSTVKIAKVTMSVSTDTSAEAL
Assay type: cell membranes, Brain, Brain membranes
Description: Inhibition of [3H]CP-55940 binding to cannabinoid receptor 1 in rat brain membranes.
Compound CCC(C)c1ccc(-n2nc(C(=O)NN3CCCCC3)c(C)c2-c2ccc(Cl)cc2)cc1 (configuration not stated) has a Ki of 37 nM.
With CCCCCCCNC(=O)c1nn(-c2ccc(Cl)cc2Cl)c(-c2ccc(Cl)cc2)c1C the Ki was 3 nM.
Compound O=C(NN1CCCCC1)c1nn(-c2ccc(Cl)cc2Cl)c2c(Cl)cccc12 has a Ki of 746 nM.
For CCCCCn1nc(C(=O)NN2CCCCC2)c(C)c1-c1ccccc1, the Ki was 23 nM.
Cc1c(C(=O)NN2CCCCC2)nn(-c2ccc(N)cc2)c1-c1ccc(Cl)cc1 gave a Ki of 72 nM.
Cc1c(C(=O)NN2CCCC2)nn(-c2ccc(Cl)cc2Cl)c1-c1ccc(Br)cc1 was tested, and the Ki was 17.1 nM.
Compound CCCCc1ccc(-n2nc(C(=O)NN3CCCCC3)c(C)c2-c2ccc(Cl)cc2)cc1 has a Ki of 256 nM.
CCCCCc1ccc(-n2nc(C(=O)NN3CCCCC3)c(C)c2-c2ccc(Cl)cc2)cc1 gave a Ki of 1360 nM.
Cc1c(COCC2CCCCC2)nn(-c2ccc(Cl)cc2Cl)c1-c1ccc(Cl)cc1 gave a Ki of 100 nM.
Compound CCCCCn1nc(C(=O)NN2CCCCC2)c(C)c1-c1ccc(Br)cc1 has a Ki of 63 nM.
Cc1c(C(=O)NC2CCCCC2)nn(-c2ccc(Cl)cc2Cl)c1-c1ccc(Br)cc1 was tested, and the Ki was 15 nM.
With Cc1c(C(=O)NN2CCOCC2)nn(-c2ccc(Cl)cc2Cl)c1-c1ccc(Br)cc1 the Ki was 19 nM.
With Cc1c(C(=O)NN2CCCCC2)nn(-c2ccc([N+](=O)[O-])cc2)c1-c1ccc(Cl)cc1 the Ki was 109 nM.
Cc1c(C(=O)NN2CCCCC2)nn(C2CCCCC2)c1-c1ccccc1 showed a Ki of 391 nM.
Cc1c(C(=O)NN2CCCCC2)nn(-c2ccc(Cl)cc2)c1-c1ccc(Cl)cc1 was tested, and the Ki was 55 nM.
CCCCCc1ccc(-c2c(C)c(C(=O)NN3CCCCC3)nn2-c2ccc(Cl)cc2Cl)cc1 gave a Ki of 1 nM.
Compound Cc1c(COCc2ccc(F)cc2)nn(-c2ccc(Cl)cc2Cl)c1-c1ccc(Cl)cc1 has a Ki of 6 nM.
With Cc1c(COCCN2CCCCC2)nn(-c2ccc(Cl)cc2Cl)c1-c1ccc(Cl)cc1 the Ki was 232 nM.
CC(=O)c1ccc(-c2c(C#N)c(C(=O)Nc3ccccc3)nn2-c2ccccc2Cl)cc1 showed a Ki of 7 nM.
Cc1c(C(=O)N(C)C2CCCCC2)nn(-c2ccc(Cl)cc2Cl)c1-c1ccc(Br)cc1 gave a Ki of 56 nM.
In the case of CCCCn1nc(C(=O)NN2CCCCC2)c(C)c1-c1ccccc1, the Ki is reported as 187 nM.
CCCCCCCn1nc(C(=O)NN2CCCCC2)c(C)c1-c1ccccc1 gave a Ki of 47 nM.
In the case of CCCCCC(=O)c1nn(-c2ccc(Cl)cc2Cl)c(-c2ccc(Cl)cc2)c1C, the Ki is reported as 25 nM.
Work on CCCCCNC(=O)c1nn(-c2ccc(Cl)cc2Cl)c(-c2ccc(Cl)cc2)c1C yielded a Ki of 3 nM.
In the case of O=C(NN1CCCCC1)c1nn(-c2ccc(Cl)cc2Cl)c2c([N+](=O)[O-])cccc12, the Ki is reported as 202 nM.
CCCCCCn1nc(C(=O)NN2CCCCC2)c(C)c1-c1ccccc1 was tested, and the Ki was 21 nM.
Work on Cc1c(C(=O)NCCO)nn(-c2ccc(Cl)cc2Cl)c1-c1ccc(Br)cc1 yielded a Ki of 165 nM.

— ChEMBL document CHEMBL1135902, “Molecular interaction of the antagonist N-(piperidin-1-yl)-5-(4-chlorophenyl)-1- (2,4-dichlorophenyl)-4-methyl-1H-pyrazole-3-carboxamide with the CB1 cannabinoid receptor” (J Med Chem, 2002)
